“And” between values parts separate entries of the source, which are not always exact repeats. Identical values can stand only once.
Assays:
[1] = test system: HCV JFH1; experiment: HCV JFH1 infectivity assay (JFH1 Foci Reduction Assay); assay type: cell-based, hepatitis C virus; details: virus preincubated with compound; Huh 7 cells; 48 hr post infection; RD8, RD16, RD17, RD18 as glucosidase hydrolysis products
[2] = test system: HCV/HIV pseudovirions; experiment: microbe, parasite or virus in culture; assay type: cell-based, hepatitis C virus
[3] = test system: HBeAg; experiment: Anti-HBSAg Assay (Procedure B), HBeAg; assay type: cell-based, hepatitis B virus; design: HBeAg Ave: unit not given here
[4] = test system: HBsAg; experiment: Anti-HBSAg Assay (Procedure B), HBsAg; assay type: cell-based, hepatitis B virus; design: HBsAg Ave.: unit not given here
Method: The HBV-producing human hepatoblastoma cell line, Hep G2 2.2.15 is maintained in DMEM supplemented with 10% fetal bovine serum (FBS), 2 mM glutamine, 100 units/ml penicillin, 100 μg/ml streptomycin at 37° C. under 5% CO2 in air.
Samples were dissolved in DMSO at the concentration of 20 mg/mL, then further diluted with DMEM medium to the appropriate concentration.
Hep G2 2.2.15 cells (120 μl) were seeded onto 96-well plates at a concentration of 2×10^5 cells/mL. The cells incubated for 72 h in the medium without G418, after which the test samples (120 μl) were added. Five 3-fold serial dilutions of samples were tested. PBS and 3TC (lamivudine) were included as the negative and positive controls, respectively. The treated cells were incubated at 37° C. for 9 days; with the medium with sample being changed each 3 days, after which the culture supernatant was removed for analysis of both the hepatitis B surface antigen (HBsAg) production and hepatitis B DNA expression.
The HBsAg released into the culture medium in the presence or absence of test material was assayed using the kit manufactured by Shanghai Siic Kehua Biotech Co., Ltd (Shanghai, China). This enzyme immunoassay is based on the capture of HBsAg on monoclonal antibody-coated plates. Four- and twelve-fold dilutions of all culture supernatants collected were assayed in triplicate wells of the kit plate. The percentage inhibition of HBsAg secretion in the presence of the compound was calculated against the negative control (PBS). The IC50 values, the dose that inhibited viruses by 50%, were calculated using non-linear regression analysis (percent survival versus concentration).

[5] = test system: hepatitis B surface antigen (HBsAg) production; experiment: Anti-HBSAg Assay (Procedure A); assay type: cell-based, hepatitis B virus; details: 50 μg/ml
Method: (§1) The HBV-producing human hepatoblastoma cell line, Hep G2.2.15 was maintained in DMEM supplemented with 10% fetal bovine serum (FBS), 2 mM glutamine, 100 units/ml penicillin, 100 μg/ml streptomycin and 380 μg/ml gentamicin sulfate (G418) at 37° C. under 5% CO2 in air. The Hep G2 parental cells were grown under identical conditions in MEM with Earle's salts without G418.
(§2) Hep G2.2.15 cells (190 μl) were seeded onto microtiter plates at a concentration of 20×10^4 cells/ml. The cells incubated overnight in medium without G418 after which the compound compositions (10 μl) were added. Five 2-fold serial dilutions of extracts or fractions were tested starting at 200 μg/ml final culture concentration. PBS and 3TC (lamivudine) were included as the negative and positive controls, respectively. The treated cells were incubated at 37° C. for 4 days, after which the hepatitis B surface antigen (HBsAg) production in culture supernatants was assayed. The HBsAg released into the culture medium in the presence or absence of test samples was assayed using the BIO-RAD Genetic Systems HBsAg EIA 3.0 kit (Bio-Rad, Redmond, Wash.). This enzyme immunoassay is based on the capture of HBsAg on monoclonal antibody-coated plates. Four- and twelve-fold dilutions of all culture supernatants collected were assayed in triplicate wells of the EIA plate. The percentage inhibition of HBsAg secretion in the presence of the plant samples was calculated against the negative control (PBS).

[6] = test system: HBV DNA; experiment: Anti-HBV DNA Assay; assay type: cell-based, hepatitis B virus; details: for HBV DNA copies/ml: replicates, listed as HP-S3
[7] = test system: Hep G2.2.15 cells; experiment: % Cell Viability in Anti-HBSAg Assay (Procedure A); assay type: cell-based, human; details: 50 μg/ml
Method: as §1, §2

[8] = Enzyme Hydrolysis Processing Time 0.5 hours
[9] = Enzyme Hydrolysis Processing Time 4.0 hours

With `O=C(C=Cc1ccc(O)cc1)OCC1=CC(O)C2C=COC(O)C12` (mixture of isomers) [RD-18] the “Estimated IC50 (inhibition of HCV JFH1 infectivity)” value [1] was 26 µg/mL, the “HCV Inhibition at 20 μg/mL” value [2, 8] was 46.6 and the “HCV Inhibition at 20 μg/mL” value [2, 9] was 56.6.

For `CC1C(O)CC2C(C(=O)O)=COC(O)C21` (mixture of isomers) [RD-17], the “Estimated IC50 (inhibition of HCV JFH1 infectivity)” value [1] was 17 µg/mL, the “HCV Inhibition at 20 μg/mL” value [2, 8] was 39.4 and the “HCV Inhibition at 20 μg/mL” value [2, 9] was 52.5.

With `OCC1=C[C@@H](O)[C@@H]2C=CO[C@@H](O[C@@H]3O[C@H](CO)[C@@H](O)[C@H](O)[C@H]3O)[C@H]12` [aucubin] the “HBeAg Ave” value ([3]; 12.5 μg/mL) was 1.378, the “HBeAg Inhibition %” value ([3]; 12.5 μg/mL) was 0% and the “HBeAg OD1” value ([3]; 12.5 μg/mL) was 1.397. For the same compound, the “HBeAg OD2” value ([3]; 12.5 μg/mL) was 1.419, the “HBeAg OD3” value ([3]; 12.5 μg/mL) was 1.318 and the “HBeAg Ave” value ([3]; 25 μg/mL) was 1.364. The “HBeAg Inhibition %” value ([3]; 25 μg/mL) was 0%, the “HBeAg OD1” value ([3]; 25 μg/mL) was 1.332 and the “HBeAg OD2” value ([3]; 25 μg/mL) was 1.369. The “HBeAg OD3” value ([3]; 25 μg/mL) was 1.390, the “HBeAg Ave” value ([3]; 50 μg/mL) was 1.383 and the “HBeAg Inhibition %” value ([3]; 50 μg/mL) was 0%. The “HBeAg OD1” value ([3]; 50 μg/mL) was 1.357, the “HBeAg OD2” value ([3]; 50 μg/mL) was 1.437 and the “HBeAg OD3” value ([3]; 50 μg/mL) was 1.354. For the same compound, the “HBeAg Ave” value ([3]; 100 μg/mL) was 1.616, the “HBeAg Inhibition %” value ([3]; 100 μg/mL) was 0% and the “HBeAg OD1” value ([3]; 100 μg/mL) was 1.707. For the same compound, the “HBeAg OD2” value ([3]; 100 μg/mL) was 1.479, the “HBeAg OD3” value ([3]; 100 μg/mL) was 1.662 and the “HBeAg Ave” value ([3]; 200 μg/mL) was 1.357. For the same compound, the “HBeAg Inhibition %” value ([3]; 200 μg/mL) was 0%, the “HBeAg OD1” value ([3]; 200 μg/mL) was 1.350 and the “HBeAg OD2” value ([3]; 200 μg/mL) was 1.305. The “HBeAg OD3” value ([3]; 200 μg/mL) was 1.415, the “HBsAg Ave.” value ([4]; 12.5 μg/mL) was 1.232 and the “HBsAg Inhibition %” value ([4]; 12.5 μg/mL) was 0%. For the same compound, the “HBsAg OD1” value ([4]; 12.5 μg/mL) was 1.196, the “HBsAg OD2” value ([4]; 12.5 μg/mL) was 1.261 and the “HBsAg OD3” value ([4]; 12.5 μg/mL) was 1.238. For the same compound, the “HBsAg Ave.” value ([4]; 25 μg/mL) was 1.309, the “HBsAg Inhibition %” value ([4]; 25 μg/mL) was 0% and the “HBsAg OD1” value ([4]; 25 μg/mL) was 1.242. For the same compound, the “HBsAg OD2” value ([4]; 25 μg/mL) was 1.384, the “HBsAg OD3” value ([4]; 25 μg/mL) was 1.302 and the “HBsAg Ave.” value ([4]; 50 μg/mL) was 1.272. For the same compound, the “HBsAg Inhibition %” value ([4]; 50 μg/mL) was 0%, the “HBsAg OD1” value ([4]; 50 μg/mL) was 1.218 and the “HBsAg OD2” value ([4]; 50 μg/mL) was 1.375. For the same compound, the “HBsAg OD3” value ([4]; 50 μg/mL) was 1.222, the “HBsAg Ave.” value ([4]; 100 μg/mL) was 1.292 and the “HBsAg Inhibition %” value ([4]; 100 μg/mL) was 0%. The “HBsAg OD1” value ([4]; 100 μg/mL) was 1.276, the “HBsAg OD2” value ([4]; 100 μg/mL) was 1.353 and the “HBsAg OD3” value ([4]; 100 μg/mL) was 1.246. The “HBsAg Ave.” value ([4]; 200 μg/mL) was 1.541, the “HBsAg Inhibition %” value ([4]; 200 μg/mL) was 0% and the “HBsAg OD1” value ([4]; 200 μg/mL) was 1.546. For the same compound, the “HBsAg OD2” value ([4]; 200 μg/mL) was 1.616, the “HBsAg OD3” value ([4]; 200 μg/mL) was 1.46 and the “% Control HBSAg” value [5] was 100%. The “% Inhibition” value [5] was 0%, the “inhibition of HCV/HIV entry” value ([2]; 100 μg/mL, FIG. 1) was “inactive” and the “HBV DNA Average” value ([6]; 12.5 μg/ml) was 1.06 × 10^6 copies/ml. The “HBV DNA Inhibit” value ([6]; 12.5 μg/ml) was 9.40%, the “HBV DNA copies/ml” value ([6]; 12.5 μg/ml) was 1.03E+06 copies/ml and 9.68E+05 copies/ml and 1.18E+06 copies/ml and the “HBV DNA Average” value ([6]; 25 μg/ml) was 1.03 × 10^5 copies/ml. For the same compound, the “HBV DNA Inhibit” value ([6]; 25 μg/ml) was 1.35%, the “HBV DNA copies/ml” value ([6]; 25 μg/ml) was 9.52E+05 copies/ml and 1.07E+06 copies/ml and 1.04E+06 copies/ml and the “HBV DNA Average” value ([6]; 50 μg/ml) was 1.28 × 10^6 copies/ml. For the same compound, the “HBV DNA Inhibit” value ([6]; 50 μg/ml) was 0.00%, the “HBV DNA copies/ml” value ([6]; 50 μg/ml) was 1.22E+06 copies/ml and 1.27E+06 copies/ml and 1.35E+06 copies/ml and the “HBV DNA Average” value ([6]; 100 μg/ml) was 1.32 × 10^6 copies/ml. The “HBV DNA Inhibit” value ([6]; 100 μg/ml) was 0.00%, the “HBV DNA copies/ml” value ([6]; 100 μg/ml) was 1.17E+06 copies/ml and 1.15E+06 copies/ml and 1.65E+06 copies/ml and the “HBV DNA Average” value ([6]; 200 μg/ml) was 1.20 × 10^6 copies/ml. The “HBV DNA Inhibit” value ([6]; 200 μg/ml) was 0.00% and the “HBV DNA copies/ml” value ([6]; 200 μg/ml) was 1.38E+06 copies/ml and 9.71E+05 copies/ml and 1.24E+06 copies/ml.

In the case of `OCC1=CC(O)C2C=COC(O)C12` (mixture of isomers) [aucubin enzyme hydrolysate, reference compound], the “% Cell Viability” value [7] is reported as 100%, the “% Control HBSAg” value [5] is reported as 96% and the “% Inhibition” value [5] is reported as 4%.

Source: US20080319042A1, “Compositions and methods for treatment of liver disease” (priority 2007, published 2008)
